Assay results from patent US6613806B1, “Enhancement of the efficacy of benzoylbenzenes” (BASF Corporation, priority 1999, dated 2003).

Experiments:
Format in all cases: in vivo
[1] = system: Blumeria graminis f.sp. tritici; experiment: Greenhouse wheat powdery mildew (WPM) 2 day curative disease control; conditions: Table I; adjuvant alone, NOP 1000 ppm, BB-4 0 ppm
From the text: (§1) Greenhouse Evaluations for Fungicidal Efficacy Disease: Wheat powdery mildew (WPM). Pathogen: Blumeria graminis f.sp. tritici Test Procedure: 1. Wheat seed is planted in plastic pots and maintained in the greenhouse. 2. When the primary leaf (wheat) is fully expanded, formulated test compounds and adjuvants are sprayed with a single nozzle overhead track sprayer at a rate of 200 l/ha. Plants are then allowed to air-dry. 3. Inoculation precedes treatment by 2 days in the case of curative evaluations and follows treatment by 3-4 days in case of residual evaluations. For inoculation, plants are set up on greenhouse benches with bottom watering mats and inoculated by dusting them with conidia from powdery mildew infected plants (stock cultures at an age of 10-14 days). Between inoculation and treatment for curative evaluations and between treatment and inoculation for residual evaluations, plants are maintained in the greenhouse with bottom watering. 4. Disease on the primary leaf (wheat) as percent leaf area with disease symptoms/signs is evaluated about 7 days after inoculation. In the case of wheat, the tips and bases of the leaves are excluded from the evaluation. Percent disease control is then calculated by the following is formula: [formula] Formulation, Reference Compounds and Controls: 1. Formulated compounds are diluted using deionized water. 2. […]

[2] = system: Blumeria graminis f.sp. tritici; experiment: Greenhouse wheat powdery mildew (WPM) antisporulation test; design: key: +++: complete (no spore release); ++: strong; +: moderate; none; conditions: Table III; adjuvant alone, NOP 1000 ppm, BB-4 0 ppm
From the text: Greenhouse Evaluations for Fungicidal Efficacy Disease: Wheat powdery mildew (WPM). Pathogen: Blumeria graminis f.sp. tritici Test Procedure: 1. Wheat seed is planted in plastic pots and maintained in the greenhouse. 2. When the primary leaf (wheat) is fully expanded, formulated test compounds and adjuvants are sprayed with a single nozzle overhead track sprayer at a rate of 200 l/ha. Plants are then allowed to air-dry. 3. Inoculation precedes treatment by 2 days in the case of curative evaluations and follows treatment by 3-4 days in case of residual evaluations. For inoculation, plants are set up on greenhouse benches with bottom watering mats and inoculated by dusting them with conidia from powdery mildew infected plants (stock cultures at an age of 10-14 days). Between inoculation and treatment for curative evaluations and between treatment and inoculation for residual evaluations, plants are maintained in the greenhouse with bottom watering. In antisporulation tests, inoculation preceeds compound application by three days. Scale for Anti-Sporulation Effect: +++=complete (no spore release); ++=strong; +=moderate; o=none.

[3] = system: Blumeria graminis f.sp. tritici; experiment: Greenhouse wheat powdery mildew (WPM) 4 day residual disease control; conditions: adjuvant alone, NOP 1000 ppm, BB-4 0 ppm
From the text: as §1

CCCCCCCCN1CCCC1=O [NOP, N-octylpyrrolidone]
WPM 2 day Curative Disease Control (%) [1]: 14% | WPM Antisporulation Effect [2]: o | WPM 4 day Residual Disease Control (%) ([3]; Table I): 9% | WPM 4 day Residual Disease Control (%) ([3]; Table III): 0%
